BigSolDB 2.1

O=P(NC1CCCCC1)(Oc1ccccc1)Oc1ccccc1
solubility (mole fraction)
Conditions	in THF	in acetone	in acetonitrile	in benzene	in chloroform	in dichloromethane	in ethanol	in ethyl acetate	in methanol	in toluene
278.15 K	–	–	–	–	–	0.0884	–	–	–	–
283.15 K	–	–	–	–	–	0.102	–	–	–	–
288.15 K	–	–	–	–	–	0.129	–	–	–	–
293.15 K	0.168	0.0439	0.0115	0.077	0.207	0.155	0.0358	0.0305	0.0411	0.0539
298.15 K	0.192	0.0611	0.0171	0.0991	0.233	0.18	0.049	0.0395	0.0533	0.0688
303.15 K	0.229	0.0796	0.0248	0.127	0.266	0.216	0.0638	0.0549	0.0702	0.0911
308.15 K	0.269	0.109	0.0371	0.159	0.313	0.26	0.0867	0.0721	0.0955	–
313.15 K	0.318	0.134	0.0521	0.195	0.352	–	0.116	0.0946	0.121	0.154
318.15 K	0.372	0.187	0.0759	0.25	0.4	–	0.153	0.128	0.161	–
323.15 K	0.419	0.229	0.106	0.292	0.459	–	0.196	0.166	0.212	0.259
328.15 K	0.504	0.271	0.148	0.374	0.518	–	0.253	0.211	0.281	–
333.15 K	0.567	–	0.191	0.457	–	–	0.317	0.264	0.356	0.409
338.15 K	–	–	0.263	0.55	–	–	0.406	0.341	–	–
343.15 K	–	–	0.358	0.636	–	–	–	0.426	–	0.611
